In article PMC9640990 (Frontiers in Pharmacology, 2022):
Values belong to the compound of their own block, whether it stands above or below them.

Columns and labels:
[1] = rats; approximately
[2] = 1990, cited from earlier work
[3] = tested on: MDR1 mRNA; assay: MDR1 mRNA expression in Caco-2 cells (qRT-PCR); assay type: cell-based; conditions: 48 h pretreatment, bosentan 20 μM, GA 50 μM, PCA 50 μM, PCE 100 mg/ml
[4] = tested on: BCRP mRNA; assay: BCRP mRNA expression in Caco-2 cells (qRT-PCR); assay type: cell-based; conditions: 48 h pretreatment, bosentan 20 μM, GA 50 μM, PCA 50 μM, PCE 100 mg/ml
[5] = target: hOAT3 (Homo sapiens, UniProt Q8TCC7); assay: Inhibition of hOAT3-mediated uptake of 3H-ES in hOAT3-MDCK cells; assay type: cell-based; conditions: hOAT3-MDCK cells
hOAT3, sequence (Q8TCC7 whole entry): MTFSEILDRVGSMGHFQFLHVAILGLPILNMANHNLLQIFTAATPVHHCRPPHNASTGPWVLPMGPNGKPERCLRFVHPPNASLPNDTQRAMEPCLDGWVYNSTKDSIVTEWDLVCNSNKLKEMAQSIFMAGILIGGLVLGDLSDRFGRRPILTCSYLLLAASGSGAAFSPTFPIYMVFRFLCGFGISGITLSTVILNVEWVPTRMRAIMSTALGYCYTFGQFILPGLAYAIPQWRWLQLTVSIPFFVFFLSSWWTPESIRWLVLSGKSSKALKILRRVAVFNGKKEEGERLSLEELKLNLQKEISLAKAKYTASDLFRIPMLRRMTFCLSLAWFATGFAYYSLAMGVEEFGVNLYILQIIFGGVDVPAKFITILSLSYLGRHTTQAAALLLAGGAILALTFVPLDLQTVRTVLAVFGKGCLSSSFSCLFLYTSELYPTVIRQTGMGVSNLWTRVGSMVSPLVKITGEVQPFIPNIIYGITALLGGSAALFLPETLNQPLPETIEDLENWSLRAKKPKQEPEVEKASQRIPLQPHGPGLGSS
Excerpt: (§1) Considering the relative exposure characteristics, GA and PCA were selected as PK-marker and Q-marker components of PCE in previous studies ([Ma et al., 2015]; [Ma et al., 2016]; [Li et al., 2021b]). In this study, we investigated the concentration-dependent inhibitions of GA and PCA on multiple transporters, including OAT1, OAT3, OCT2, MDR1, and BCRP. Stably expressing cell lines of hOAT1-MDCK, hOAT3-MDCK, hOCT2-S2, hMDR1-MDCK, hBCRP-MDCK, and their mock cells were obtained from Japan Fuji Biomedical Co., Ltd. The cells were maintained in DMEM (Sigma) supplemented with 10% FCS, 1% non-essential amino acids (Sigma), and 2% L-glutamine. The medium for the Transwell® plates (Corning Costar, Cambridge, MA, United States) was supplemented with 0.1% gentamicin. Membrane filters were placed in a 12 mm well with 1.5 and 0.5 ml of culture medium in the basolateral and apical compartments, respectively. Cells were cultured at 37°C in an atmosphere of 5% CO2. The inhibition experiments were adapted from previous methods with minor modifications ([Li et al., 2021a]; [2021b]).
Briefly, the hOAT1-MDCK, hOAT3-MDCK, and hOCT2-S2 cells were trypsinized and suspended in the culture medium to provide a density of 1.5 × 10^5 cells/ml. After incubating for 48 h, the cells were washed twice with preheated DPBS and then pre-incubated with DPBS for 10 min at 37°C. 500 µl of DPBS containing probe substrates was added to initiate the uptake in the presence or absence of GA, PCA or positive inhibitors. The hMDR1-MDCK and hBCRP-MDCK cells were suspended at a density of 4.0 × 10^5 cells/ml. After cultivation for 7 days, cells were washed twice and equilibrated for 30 min at 37°C with the pre-warmed HBSS buffer. […] The radioactive intensity of ^14C-PAH, ^3H-ES, and ^14C-TEA was measured using a Tri-Carb 2910TR scintillator (PerkinElmer, United States). Fluorescence was measured at 485 nm (excitation) and 546 nm (emission) for rhodamine 123, and 425 nm (excitation) and 528 nm (emission) for lucifer yellow. IC50 values were determined by employing GraphPad Prism 9.

[6] = target: T1, hOCT2 (Homo sapiens, UniProt O15244); assay: Inhibition of hOCT2-mediated uptake of 14C-TEA in hOCT2-S2 cells; assay type: cell-based
T1 construct: host or cells: S2
T1 sequence (O15244 1-555): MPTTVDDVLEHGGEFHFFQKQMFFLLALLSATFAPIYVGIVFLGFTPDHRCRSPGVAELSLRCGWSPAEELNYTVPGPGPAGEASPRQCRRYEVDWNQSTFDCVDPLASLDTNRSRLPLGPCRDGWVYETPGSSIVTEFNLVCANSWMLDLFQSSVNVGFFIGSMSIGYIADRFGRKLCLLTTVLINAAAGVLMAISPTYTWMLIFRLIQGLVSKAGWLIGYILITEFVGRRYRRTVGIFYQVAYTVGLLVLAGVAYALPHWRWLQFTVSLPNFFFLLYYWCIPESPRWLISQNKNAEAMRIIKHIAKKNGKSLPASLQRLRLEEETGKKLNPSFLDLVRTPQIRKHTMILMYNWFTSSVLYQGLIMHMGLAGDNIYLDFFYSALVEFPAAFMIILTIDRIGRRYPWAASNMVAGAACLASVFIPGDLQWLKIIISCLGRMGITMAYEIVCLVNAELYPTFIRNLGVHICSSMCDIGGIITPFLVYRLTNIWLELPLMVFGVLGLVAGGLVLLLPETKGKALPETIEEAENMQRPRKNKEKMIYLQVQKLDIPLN
Excerpt: as §1, with “Membrane filters were placed in a 12 mm well with 1.5 and 0.5 ml of culture medium in the basolateral and apical compartments, respectively. Cells were cultured at 37°C in an atmosphere of 5% CO2. The inhibition experiments were adapted from previous methods with minor modifications ([Li et al., 2021a]; [2021b]).” left out
Briefly, the hOAT1-MDCK, hOAT3-MDCK, and hOCT2-S2 cells were trypsinized and suspended in the culture medium to provide a density of 1.5 × 10^5 cells/ml. […] The radioactive intensity of ^14C-PAH, ^3H-ES, and ^14C-TEA was measured using a Tri-Carb 2910TR scintillator (PerkinElmer, United States). Fluorescence was measured at 485 nm (excitation) and 546 nm (emission) for rhodamine 123, and 425 nm (excitation) and 528 nm (emission) for lucifer yellow. IC50 values were determined by employing GraphPad Prism 9.

reduction of circulating CIP by concurrent use of PCE [1]: 40%–50%
Compound: O=C(O)c1cn(C2CC2)c2cc(N3CCNCC3)c(F)cc2c1=O [CIP, ciprofloxacin]
share of an intravenous dose eliminated into the intestine ([2]; ref Rohwedder et al., Haslam et al., 2011): Approximately 20%
excreted in unchanged form into the urine ([2]; ref Vance-Bryan et al.): Approximately 60%

Compound: COc1ccccc1Oc1c(NS(=O)(=O)c2ccc(C(C)(C)C)cc2)nc(-c2ncccn2)nc1OCCO [bosentan, Bosentan]
increase of MDR1 (P-gp) mRNA expression [3]: 7.36 fold
increase of BCRP mRNA expression [4]: 4.31 fold

effect of positive inhibitor on hOAT3 [5]: Significant inhibitory effects
Compound: CN/C(=N/CCSCc1nc[nH]c1C)NC#N [cimetidine]

effect of positive inhibitor on hOCT2 [6]: Significant inhibitory effects
Compound: CO[C@H]1/C=C/O[C@@]2(C)Oc3c(C)c(O)c4c(O)c(c(/C=N/N5CCN(C)CC5)c(O)c4c3C2=O)NC(=O)/C(C)=C\C=C\[C@H](C)[C@H](O)[C@@H](C)[C@@H](O)[C@@H](C)[C@H](OC(C)=O)[C@@H]1C [rifampicin]
